Data reported in patent US20230159442A1, “CELLULAR ENERGY COMPOUNDS, COMPOSITIONS, AND METHODS OF USE THEREOF” (priority 2021, published 2023).
Read-outs that look alike come from different tables or passages of the source.

Columns and labels:
[1] = tested on: Calu-3 (human airway epithelial cell line) host cells; type: cell-based
[2] = tested on: Calu-3 (human airway epithelial cell line) host cells; type: cell-based; remark: listed apart in the source
[3] = tested on: T cells; type: cell-based, human; details: T cells with T2 cells, Spike peptide […]; vs media alone
[4] = Saturated aqueous solubility determination; details: for solubility at 1.5 h: deionized water, 25 °C, water, thermodynamic from solid; for Ratio (relative to CM): solubility relative to creatine monohydrate
Procedure: After 1.5 hour, the saturated solutions were vortexed and 2-ml aliquots removed and centrifuged in microcentrifuge tubes at 11,000 rpm for 5 min. Concentrations were analyzed by HPLC by diluting 500 μL of supernatant with mobile phase (500 μL). The mean±standard deviation of the saturation solubility for each antiviral therapeutic compound is calculated from the corresponding standard curves.

[5] = tested on: Madin Darby canine kidney (MDCK) monolayers; experiment: Flux per hour in MDCK monolayers (contemplated); type: in vitro ADME
Excerpt: […]. […] […].

[6] = tested on: Caco-2 monolayers; details: cited from earlier work

With C[N+](C)(C)CC(=O)OC1CCCC1.[Br-] [betaine cyclopentyl ester] the “reduction of TNF expression” value [1] was “slightly reduces”, the “IL-1β expression as percent of the expression when no compound is present” value [2] was “less than 20%” and the “IL-6 expression as percent of the expression when no compound is present” value [2] was “less than 55%”. The “TNF expression as percent of the expression when no compound is present” value [2] was “less than 20%”, the “reduction of IL-6 expression” value [2] was “about 60%” and the “reduction of TNF expression” value [2] was “about 45%”. For the same molecule, the “release of IFNg from T cells” value [3] was “increased over the control”, the solubility at 1.5 h [4] was > 600 mg/mL and the “aqueous solubility compared with betaine hydrochloride” value ([4]; not shown) was “significantly greater than betaine hydrochloride”. The “Ratio (relative to CM)” value [4] was >29.

With CN(CC(=O)OC1CCCCC1)C(=N)N.Cc1ccc(S(=O)(=O)O)cc1 [creatine cyclohexyl ester] the “IL-1β expression as percent of the expression when no compound is present” value [1] was “less than 20%”, the “IL-6 expression as percent of the expression when no compound is present” value [1] was “less than 30%” and the “release of IFNg from T cells” value [3] was “increased over the control”. The “flux per hour relative to creatine monohydrate” value [5] was “at least double”, the solubility at 1.5 h [4] was 15 to 20 mg/mL and the “Ratio (relative to CM)” value [4] was 0.71.

For CCOC(=O)CN(C)C(=N)N.Cl [creatine ethyl ester hydrochloride], the solubility at 1.5 h [4] is listed as > 200 mg/mL and the “permeability relative to creatine monohydrate” value [6] is listed as 15 fold.

In the case of CCCCCCCCCCCC(=O)OCC(COC(=O)CCCCCCCCCCC)OC(=O)CN(C)C(=N)N [creatine glycerol laurate ester], the “flux per hour relative to creatine monohydrate” value [5] is reported as “at least double”.

In the case of CN(CC(=O)O)C(=N)N.Cl [creatine hydrochloride], the “reduction of TNF expression” value [1] is reported as “slightly reduces”, the “reduction of CXCL2 expression” value [2] is reported as 25 to 30% and the “reduction of TNF expression” value [2] is reported as “about 25%”. The “release of IFNg from T cells” value [3] was “increased over the control”.

In the case of CC(C)CCOC(=O)CN(C)C(=N)N.Cl [creatine isopentyl ester], the “IL-1β expression as percent of the expression when no compound is present” value [1] is reported as “less than 35%”, the “release of IFNg from T cells” value [3] is reported as “increased over the control” and the solubility at 1.5 h [4] is reported as > 600 mg/mL. The “Ratio (relative to CM)” value [4] was >29.

For CN(CC(=O)O)C(=N)N.O [creatine monohydrate, reference compound], the apparent permeability coefficient [6] is given as “about 0.12±0.004 10^−6 cm/s”.

In the case of CCCCCCCCCCCC(=O)OC(C)COC(=O)CN(C)C(=N)N (stereo not shown) [creatine propylene glycol laurate ester], the “flux per hour relative to creatine monohydrate” value [5] is reported as “at least double”.

In the case of “ethyl (α-guanido-methyl) ethanoate [Alpha-GEE]”, the “reduction of CXCL2 expression” value [1] is reported as ~70% and the “release of IFNg from T cells” value [3] is reported as “increased over the control”.
